# Assay results published in publication PMC12372228 (Journal of the American Chemical Society, 2025).
# Legend:
# [1] = test system: HCT-116 colon cancer cells; assay: In vitro cytotoxicity, HCT-116 colon cancer cells; details: Homo sapiens, HCT-116, 72 h
# HT-29 colon cancer cells = assay: In vitro cytotoxicity, HT-29 colon cancer cells; format: cell-based; details: Homo sapiens, HT-29, 72 h
# healthy mice = details: dose used is near the reported MTD; cited from earlier work
# HCT-116 tumors = assay: Antitumor efficacy in nude mice bearing HCT-116 tumors; format: in vivo; details: 66.7 mg/kg i.v. on days 1, 5, 9; n = 5
# HT-29 tumors = assay: Antitumor efficacy in nude mice bearing HT-29 tumors; format: in vivo; details: 66.7 mg/kg i.v. on days 1, 5, 9
Compound,IC50 [1],IC50 (HT-29 colon cancer cells),reported maximum tolerated dose (MTD) (healthy mice),median survival (HCT-116 tumors),median survival (HT-29 tumors; n = 5 (TT 1 study)),median survival (HT-29 tumors; n = 7 (TT 7E study))
"CC[C@@]1(O)C(=O)OCc2c1cc1n(c2=O)Cc2cc3ccccc3nc2-1 [CPT, camptothecin]",40 nM,64 nM,,,,
CCc1c2c(nc3ccc(OC(=O)N4CCC(N5CCCCC5)CC4)cc13)-c1cc3c(c(=O)n1C2)COC(=O)[C@]3(O)CC [irinotecan],,,~66.7 mg/kg,23 days,33 days,41 days
